Entries after “also recorded” stand apart in the source; their conditions may differ. Like-named read-outs stand apart in the source and are kept apart here.
Assays:
[1] = tested on: male Sprague-Dawley rats with steatosis, induced by choline and methionine deficient (MCD) diet; assay: Aminotransferase (ALT) activity in plasma during parenteral nutrition; type: in vivo; conditions: for development of ALT activity from day 5 to day 17 (FIG. 2): Step #2, LE 10% without or with choline derivative "high" 31 mmol/L, plasma after 5 and 17 days of parenteral nutrition
Method: ALT activity is determined by a modification recommended by the International Federation of Clinical Chemistry (IFCC), see also Example 2. ALT catalyzes the reaction of alpha-ketoglutarate with L-alanine to form L-glutamate and pyruvate. Under the action of LDH, pyruvate converts to lactate, and NADH is converted to NAD. The decrease in absorbance of NADH, measured at 340 nm (secondary wavelength is 700 nm), is directly proportional to the serum activity of ALT. It is a kinetic reaction. In general, serum is used for analysis. The serum is separated from the cells within 2 hours of collection and stored at -70° C. until assayed. Monitoring the ALT activity over time in an animal model is used herein as one straightforward and conclusive way to determine the efficacy of GPC in treating liver disease, specifically liver damage caused by a choline-deficient diet (Examples 1 and 2, FIGS. 2 and 3). The effects of GPC as well as of the combination of DHA, ARA and GPC were investigated in a sick animal model, wherein male Sprague-Dawley rats with steatosis, induced by choline and methionine deficient (MCD) diet (S SNIFF MCD pelleted choline/methionine deficient diet (SSNIFF Spezialdiäten GmbH, Soest, Germany, Product No. E15653-94)) were kept on parenteral nutrition. Steatosis was confirmed in the respective groups by histopathology (Example 3). Parenteral nutrition started after 14 days under MCD diet. First measurements were done after 5 days of parenteral nutrition, followed by measurements after 9 and 17 days. The daily lipid uptake was 2.31 g/kg/d. The rats were split into several groups as set forth below in Table I. Two groups served as control groups, wherein a first group was treated with saline solution (0.90% w/v of NaCl in water for injection). A second group received a lipid emulsion (“LE 10%”) containing refined olive oil (80.0 g/L) and refined soybean oil (20.0 g/L) in water for injection, pH 6-8; LE 10% further contained egg lecithin (6.0 g/L), glycerol (11.25 g/L) and sodium oleate (0.15 g/L). LE 10% contained 100 g/L lipids. […] CDP-choline (prepared by fermentation) was from TCI Europe N.V. (Antwerp, Belgium). […] DHA (from algae, Schizochytrium sp.) and ARA (from fungi, Mortierella alpina) were purchased from BASF AG, Germany. Vitamin E was purchased from […].) […] As described before, liver damage (cholestasis) may be determined by increased aminotransferase levels. ALT activity was determined with an AD VIA 1800 blood biochemistry analyzer/IFCC modified (SIEMENS®) according to standard protocols such as described before.

[2] = tested on: male Sprague-Dawley rats with steatosis, induced by choline and methionine deficient (MCD) diet; assay: Histopathological grading of hepatocellular vacuolation of the liver; type: in vivo; conditions: for histopathological examination of the liver, vacuolation (FIG. 4A): Step #2
Method: A part of the liver was preserved in buffered formalin, the infusion sites and the sampled macroscopic lesions were trimmed according to the RITA guidelines, where applicable (Ruchl-Fehlert et al., Exp Toxic Pathol 2003; 5 5, 91-106), embedded in paraffin wax, sectioned at a thickness of approximately four microns and stained with hematoxylin-eosin. The frozen liver sample was cryosectioned in slides of approximately five microns and stained by Oil Red O. Tissue processing was performed at Citoxlab, France.
A microscopic examination was performed on both slides (hematoxylin eosin and Oil Red O) of the liver, the infusion sites and the macroscopic lesions from all animals of the study. Peer review was performed on at least 30% of the animals from the high-dose group and on an adequate number of slides from identified target organs to confirm that findings recorded by the Study Pathologist were consistent and accurate.
Liver samples taken after 8 and 15 days, respectively, were examined as described above and assigned to five grades of hepatocellular vacuolation. Vacuolation was generally diffuse and affected all regions for Grade 5. Periportal areas were lesser affected and the vacuoles were smaller in size for lower grades. Grades have been assigned according to the following definition:

[3] = tested on: male Sprague-Dawley rats with steatosis, induced by choline and methionine deficient (MCD) diet; assay: Development of liver weight versus body weight; type: in vivo; conditions: LE 10% without or with choline derivative "high": 31 mmol/L
Excerpt: The effects of GPC as well as of the combination of DHA, ARA and GPC were investigated in a sick animal model, wherein male Sprague-Dawley rats with steatosis, induced by choline and methionine deficient (MCD) diet (S SNIFF MCD pelleted choline/methionine deficient diet (SSNIFF Spezialdiäten GmbH, Soest, Germany, Product No. E15653-94)) were kept on parenteral nutrition.
Parenteral nutrition started after 14 days under MCD diet. First measurements were done after 5 days of parenteral nutrition, followed by measurements after 9 and 17 days. The daily lipid uptake was 2.31 g/kg/d. The rats were split into several groups as set forth below in Table I.
The study groups as described in Example 1 were further evaluated with regard to the development of liver weight versus body weight. An increase in liver weight which is not proportional to the increase of body weight is typical for the development of liver damage, specifically steatosis, as described before.

[4] = for Stability upon sterilization (Comment): heat sterilization; for stability of the lipid emulsions during sterilization (heat), in words: lipid emulsions prepared as in Example 1 containing the choline derivative
Method: The choline derivative supplemented “LE” lipid emulsions were prepared as follows. In a first step, raw phases are heated up. In case of the oil phase, soybean and olive oils and egg phosphatide as well as DHA and ARA oils and vitamin E in case of Step #3 experiments are heated in an inox beaker to 75° C. under N2 protection while continuously agitating using an ULTRA TURRAX®. The aqueous phase was prepared by mixing glycerol, sodium oleate and Milli-Q water and constantly heated in an inox beaker to about 75° C. under N2 protection. Where needed, the choline derivative is added under constant agitation. In a second step, the pre-emulsion is prepared by adding the oily phase to the aqueous phase using a peristaltic pump under continuous agitation and then transferred to a high shear inline disperser (e.g. DISPAX REACTOR® DR). The receiving vessel is closed and flushed with nitrogen. In a third step the pre-emulsion is homogenized by passing it several times through a high-pressure homogenizer at 600 bar and a temperature of about 50° C., under a N2 atmosphere.
The emulsion is then adjusted to the required volume (2 L) with Milli-Q water and cooled down to a temperature of approximately 18 to 28° C., preferably 20° C. to 25° C. The pH is adjusted to a range of from 7.8 to 8.8, preferably to about 8.3 to 8.8 with 0.IN NaOH. The emulsion is filtered with a 4.5 μm filter and transferred in 100 mL bags, which are then overpouched, making use of an oxygen absorber/indicator, for later use. The lipid emulsion is then autoclaved at 121° C. to achieve a F0 of at least 15 minutes.

[5] = LE 10% with choline derivative alone (no DHA, ARA), high (31 mmol/L) and low (15 mmol/L) concentration

Compound | development of ALT activity from day 5 to day 17 (FIG. 2) [1] | liver status of the animal, in words ([2]; After 15 days into parenteral nutrition, Step #3, LE 13%, versus saline solution) | Vacuolation; hepatocellular, Grade 2, number of animals ([2]; Day 8, Step #3, phytosterol depleted LE 13%, GPC 40 mmol/L where present, 5 animals per group, Grade 2 = slight/few/small vacuoles) | Vacuolation; hepatocellular, Grade 3, number of animals ([2]; Day 8, Step #3, phytosterol depleted LE 13%, GPC 40 mmol/L where present, 5 animals per group, Grade 3 = moderate vacuoles) | Vacuolation; hepatocellular, Grade 4, number of animals ([2]; Day 8, Step #3, phytosterol depleted LE 13%, GPC 40 mmol/L where present, 5 animals per group, Grade 4 = marked/many/large vacuoles) | Vacuolation; hepatocellular, Grade 5, number of animals ([2]; Day 8, Step #3, phytosterol depleted LE 13%, GPC 40 mmol/L where present, 5 animals per group, Grade 5 = severe, diffuse, all liver regions) | histopathological examination of the liver, vacuolation (FIG. 4A) [2, 5] | liver to body weight ratio in percent (FIG. 5) [3] | Stability upon sterilization (Comment) ([4]; Concentration 30 mmol/L, lipid emulsions tested LE 10, 20 %) | stability of the lipid emulsions during sterilization (heat), in words [4] | ALT activity, change in percent of the normal value for plasma (FIG. 3) ([1]; Step #3, LE 10% normal phytosterol without GPC, LE 10% + GPC 40 mmol/L, LE 13% reduced phytosterol + GPC 40 mmol/L) | histopathological examination of the liver, vacuolation (FIG. 4A) ([2]; LE 10% with choline derivative alone, low concentration, 15 mmol/L) | Stability upon sterilization (Comment) ([4]; Concentration 30 mmol/L, lipid emulsion tested LE 10 %) | Stability upon sterilization (Comment) ([4]; Concentration 15 mmol/L, lipid emulsions tested LE 10, 13, 20 %)
C[N+](C)(C)CCOP(=O)([O-])OC[C@H](O)CO [GPC, glycerophosphocholine] | clear drop in ALT activity; also recorded: most pronounced | clear and significant improvement of the liver status | one | one | Three | none | most significant impact; also recorded: significantly better | most pronounced reduction of the ratio | Stable emulsion | remained stable |  |  |  | 
phosphatidylcholine | does not seem to have any effect |  |  |  |  |  |  | does not seem to have any effect |  |  | does not seem to have any effect |  |  | 
C[N+](C)(C)CCOP(=O)(O)OP(=O)([O-])OC[C@H]1O[C@@H](n2ccc(N)nc2=O)[C@H](O)[C@@H]1O [CDP-choline, cytidine diphosphate-choline, reference compound] | neither significantly increases or decreases |  |  |  |  |  |  | reduction of the ratio |  | phase separation of the lipid emulsions during sterilization |  | also had an effect | Phase separation | 
C[N+](C)(C)CCO.[Cl-] [Choline Chloride, (2-Hydroxyethyl)trimethylammonium chloride, reference compound] | neither significantly increases or decreases |  |  |  |  |  | fared better than those with only saline or lipid emulsion without any choline derivative | reduction of the ratio |  | phase separation of the lipid emulsions during sterilization |  |  |  | Phase separation

From patent US20260090983A1, “PARENTERAL NUTRITION FORMULATION” (Baxter International Inc., priority 2018, published 2026)
